According to publication PMC6327263, “Evaluation of Novel 3-Hydroxyflavone Analogues as HDAC Inhibitors against Colorectal Cancer” (Advances in Pharmacological Sciences, 2018):
Like-named read-outs stand apart in the source and are kept apart here.

What was measured:
[1] = test system: HDAC enzyme in HCT116 cells; test: Whole cell HDAC inhibition assay; type: cell-based; conditions: Homo sapiens, HCT-116, HCT116, 18 h treatment, mean ± SEM of three experiments
Protocol: Confluent HCT116 cells were harvested and seeded in 96 well sterile black well plates at a density of 2000 cells per well and incubated overnight. Furthermore, the cells were treated with different concentrations of test compounds for a period of 18 h followed by the addition of […] BOC-Ac-Lys-AMC substrate and incubated for 1 h. […] The reaction was then allowed to proceed for 15 min at 37°C. Finally, the fluorescence intensity was measured at 360 nm excitation and 460 nm emission using a fluorescence microplate reader (FLx800, BioTek Instruments Inc., Winooski, VT, USA).

[2] = target: T1, recombinant human HDAC1 enzyme (Homo sapiens, UniProt Q13547); test: HDAC1 enzyme inhibition assay; type: biochemical
T1 construct: purchased Enzo Life Sciences, Inc. USA
T1 sequence (Q13547 whole entry): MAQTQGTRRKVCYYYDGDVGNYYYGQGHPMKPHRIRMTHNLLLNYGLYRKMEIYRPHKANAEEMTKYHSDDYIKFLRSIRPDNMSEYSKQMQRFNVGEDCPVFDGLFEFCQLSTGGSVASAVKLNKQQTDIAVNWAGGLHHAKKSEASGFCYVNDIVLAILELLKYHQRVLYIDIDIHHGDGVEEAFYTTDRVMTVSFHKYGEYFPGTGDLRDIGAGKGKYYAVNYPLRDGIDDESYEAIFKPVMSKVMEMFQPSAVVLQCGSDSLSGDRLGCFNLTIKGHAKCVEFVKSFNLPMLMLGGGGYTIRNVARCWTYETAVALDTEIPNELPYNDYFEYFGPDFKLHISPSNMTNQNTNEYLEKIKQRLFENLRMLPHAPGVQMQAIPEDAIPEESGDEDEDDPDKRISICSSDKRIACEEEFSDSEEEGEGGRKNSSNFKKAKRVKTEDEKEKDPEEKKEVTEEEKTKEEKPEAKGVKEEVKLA
Protocol: (§1) The HDAC1 and 6 assays were carried out with few modifications from the previously described method. In brief, 10 µl of different concentration of test compounds was added to 40 µl of reaction mixture containing HDAC assay buffer, HDAC substrate, and recombinant human HDAC1 and 6 enzymes. The reactions were incubated for 30 min at 37°C. Then, 50 µl of trypsin stop solution was added in each well, and the plate was incubated at room temperature for an additional 20 min. Fluorescence intensity was measured at an excitation of 360 nm and an emission of 460 nm using a fluorescence microplate reader (FLx800, BioTek Instruments Inc. Winooski, VT, USA).

[3] = target: T2, recombinant human HDAC6 enzyme (Homo sapiens, UniProt Q9UBN7); test: HDAC6 enzyme inhibition assay; type: biochemical; conditions: mean ± SEM of three experiments
T2 construct: purchased Enzo Life Sciences, Inc. USA
T2 sequence (Q9UBN7 1-1215): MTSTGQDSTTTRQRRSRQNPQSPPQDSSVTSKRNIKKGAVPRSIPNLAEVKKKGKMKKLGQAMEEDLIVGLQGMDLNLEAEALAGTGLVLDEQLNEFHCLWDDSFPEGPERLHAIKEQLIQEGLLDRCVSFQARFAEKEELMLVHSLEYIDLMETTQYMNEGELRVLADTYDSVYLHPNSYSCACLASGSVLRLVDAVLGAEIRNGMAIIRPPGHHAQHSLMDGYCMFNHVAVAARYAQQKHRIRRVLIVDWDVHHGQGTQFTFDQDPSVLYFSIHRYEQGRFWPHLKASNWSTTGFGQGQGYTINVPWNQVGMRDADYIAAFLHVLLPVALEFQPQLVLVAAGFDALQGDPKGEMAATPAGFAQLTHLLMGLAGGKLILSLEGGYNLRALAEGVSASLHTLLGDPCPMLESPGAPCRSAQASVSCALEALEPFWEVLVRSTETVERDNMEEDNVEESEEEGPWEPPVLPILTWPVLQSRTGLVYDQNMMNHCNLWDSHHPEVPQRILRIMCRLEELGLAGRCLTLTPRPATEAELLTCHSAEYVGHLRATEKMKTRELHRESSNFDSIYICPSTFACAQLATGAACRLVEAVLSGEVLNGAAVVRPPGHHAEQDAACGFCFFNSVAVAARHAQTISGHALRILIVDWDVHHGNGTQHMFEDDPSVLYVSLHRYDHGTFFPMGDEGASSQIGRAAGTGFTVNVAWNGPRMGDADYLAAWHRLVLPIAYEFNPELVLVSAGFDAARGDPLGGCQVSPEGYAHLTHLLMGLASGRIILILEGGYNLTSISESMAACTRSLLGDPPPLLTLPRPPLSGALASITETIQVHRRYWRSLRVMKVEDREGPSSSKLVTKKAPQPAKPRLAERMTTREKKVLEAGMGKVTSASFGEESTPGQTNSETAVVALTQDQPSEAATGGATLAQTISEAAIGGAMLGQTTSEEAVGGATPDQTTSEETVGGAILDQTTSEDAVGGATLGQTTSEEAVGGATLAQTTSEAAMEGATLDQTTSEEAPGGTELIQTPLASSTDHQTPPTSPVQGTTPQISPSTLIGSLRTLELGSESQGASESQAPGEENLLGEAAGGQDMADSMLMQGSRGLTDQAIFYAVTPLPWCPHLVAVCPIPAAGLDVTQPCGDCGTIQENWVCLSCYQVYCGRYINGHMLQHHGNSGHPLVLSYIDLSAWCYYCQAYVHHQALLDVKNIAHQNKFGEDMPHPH
Protocol: as §1

HCT116 cells = test: Annexin V staining; type: cell-based, human; conditions: SAHA 5 µM, quercetin 100 µM, QMJ-2 100 µM, QMJ-5 50 µM, normal control 21.30%
Protocol: Mechanism of cell death induced by synthesized analogues was determined using annexin V staining. In brief, as per annexin V flow cytometry kit protocol (#MCH100105), 1 × 10^6 cells were seeded in a cell culture dish and after overnight adherence, were incubated with test compounds. Cells were then detached by trypsinization, centrifuged, and washed with PBS. Cell suspension (100 µl) was mixed with Muse annexin V reagent (100 µl) and incubated for 20 min at room temperature. The stained cells were quantitatively analyzed for live, early, and late apoptosis using Muse cell analyzer (#0500-3115 Merck Millipore).

[4] = mean ± SEM of three experiments, read-out: HDAC1 IC50

IC50 [1] [µM] | IC50 [2, 4] [µM] | IC50 [3] [µM] | SMILES | percentage of cells undergoing late apoptosis (Late Apop./Dead, annexin V) (HCT116 cells) [%] | IC50 ([2]; HDAC1 IC50, mean ± SEM of three experiments) [µM]
70.2 ± 4.3 | 47.7 ± 6.3 | 163 ± 7.05 | Cc1ccc(-c2oc3cc(C)ccc3c(=O)c2O)cc1 [QMJ-5, 3-Hydroxy-7-methyl-2-(4-methylphenyl)-4H-1-benzopyran-4-one] | 38.65 | –
182 ± 22 | 34.1 ± 3.83 | 165 ± 11.1 | Cc1ccc(-c2oc3ccccc3c(=O)c2O)cc1 [QMJ-2, 3-Hydroxy-2-(4-methylphenyl)-4H-1-benzopyran-4-one] | 35.20 | –

SMILES | IC50 [1] [µM] | IC50 [2, 4] [µM] | IC50 [3] [µM] | percentage of cells undergoing late apoptosis (Late Apop./Dead, annexin V) (HCT116 cells) [%] | IC50 ([2]; HDAC1 IC50, mean ± SEM of three experiments) [µM]
O=c1c(O)c(-c2ccc(O)c(O)c2)oc2cc(O)cc(O)c12 [Quercetin, quercetin, reference compound] | 168 ± 6.9 | – | 43.4 ± 2.17 | 35.80 | 26.7 ± 3.77
